Measured values: PMC3424541 (2012)

Target: T1, HsRAD51 (Homo sapiens, UniProt Q06609)
T1 sequence (Q06609 2-339): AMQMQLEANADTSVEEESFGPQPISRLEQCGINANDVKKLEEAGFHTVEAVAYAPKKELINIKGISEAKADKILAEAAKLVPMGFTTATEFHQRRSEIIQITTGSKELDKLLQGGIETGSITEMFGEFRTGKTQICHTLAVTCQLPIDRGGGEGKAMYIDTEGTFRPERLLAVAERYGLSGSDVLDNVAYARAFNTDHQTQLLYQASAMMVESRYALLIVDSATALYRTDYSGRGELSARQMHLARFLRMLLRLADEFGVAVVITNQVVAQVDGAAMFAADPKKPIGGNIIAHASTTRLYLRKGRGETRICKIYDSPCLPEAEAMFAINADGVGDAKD
Experiment: LC-MS/MS of the covalent adduct at C319
Format: binding

IC50: 5 to 30 µM
SMILES: O=C1C(Cl)=C(N2CCOCC2)C(=O)N1c1ccc(Cl)c(Cl)c1 [RI-1, 3-chloro-1-(3,4-dichlorophenyl)-4-(4-morpholinyl)-1H-pyrrole-2,5-dione]
